Source: US20260092061A1, “COMPOUNDS FOR TARGETED PROTEIN DEGRADATION” (Amphista Therapeutics Limited, priority 2022, published 2026)
Where two headings read alike, the source gives them in different places.

Columns and labels:
[1] = target: T1, BRD9 (Homo sapiens, UniProt Q9H8M2); test: BRD9 degradation, HiBiT-BRD9 KI HEK293 (LgBiT) cells, NanoGlo Lytic Endpoint assay (Assay Protocol 1); assay type: cell-based
T1 sequence (Q9H8M2 1-597): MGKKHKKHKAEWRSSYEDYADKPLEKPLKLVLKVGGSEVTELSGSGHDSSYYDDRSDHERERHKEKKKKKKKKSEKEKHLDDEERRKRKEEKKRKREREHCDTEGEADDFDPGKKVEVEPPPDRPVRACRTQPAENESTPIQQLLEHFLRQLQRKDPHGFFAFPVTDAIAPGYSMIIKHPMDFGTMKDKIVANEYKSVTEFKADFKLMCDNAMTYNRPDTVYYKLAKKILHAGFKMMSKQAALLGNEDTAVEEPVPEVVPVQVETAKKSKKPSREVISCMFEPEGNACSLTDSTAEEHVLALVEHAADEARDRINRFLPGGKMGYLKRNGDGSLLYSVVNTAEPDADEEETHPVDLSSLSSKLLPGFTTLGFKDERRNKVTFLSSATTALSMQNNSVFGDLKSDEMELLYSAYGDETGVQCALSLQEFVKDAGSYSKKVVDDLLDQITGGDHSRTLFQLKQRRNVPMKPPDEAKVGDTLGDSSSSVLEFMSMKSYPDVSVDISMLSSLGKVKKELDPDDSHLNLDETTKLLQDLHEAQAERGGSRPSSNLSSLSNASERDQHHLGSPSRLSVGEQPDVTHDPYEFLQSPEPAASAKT
In short: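 HiBiT-tagged BRD9 knock-in HEK293 (LgBiT) cells exposed to compounds for 6 h at 37 °C, 5% CO2. Residual BRD9 measured by HiBiT lytic luminescence. % BRD9 remaining normalised to DMSO-treated cells (high) and no-cell wells (low).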

[2] = target: T1, BRD9; test: Degradation of BRD9 (IF), immunofluorescence in MV4-11 cells, 24 hours (Assay Protocol 2); assay type: cell-based; parameters: A suspension of MV4-11 cells (ATCC CRL-9591) was prepared; host or cells: MV4-11; conditions: Table 2, BRD9 degradation (IF), Assay Protocol 2, MV4-11 cells; for Dmax: read-out: Assay 2 DCmax; for DC50: read-out: Assay 2 DC50
In short: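 MV4-11 cells treated with compound 24 h at 37° C., then fixed, permeabilised and immunostained for BRD9 (anti-BRD9 E4Q3F, Alexa 647 secondary, Hoechst counterstain). High-content imaging quantified nuclear BRD9 signal; % BRD9 remaining normalised to DMSO and 100 nM CFT-8634 controls.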

[3] = HEK293; Table 2; BRD9 degradation, Assay Protocol 1; 1 μM compound at 6 h of treatment; read-out: Assay 1 Dmax
[4] = Table 2; BRD9 degradation, Assay Protocol 1; 6 h of treatment; read-out: Assay 1 DC50

Dmax at 1 µM [1, 3] | DC50 [1, 4] | Dmax ([2]; MV4-11, 24 h) | DC50 [2] | Compound | DC50 ([1]; read-out: Assay 1 DC50; Table 2; BRD9 degradation, Assay Protocol 1; 6 h of treatment) | Dmax ([2]; 24 h)
40 to 70% | 1.25 to 10 nM | 40 to 70% | 1.25 to 10 nM | COc1cc(-c2cn(C)c(=O)c3cnccc23)cc(OC)c1CN1CCN(Cc2cccc3c2CCN(C(=O)/C(C#N)=C/C2(C)COC2)C3C)CC1 (mixture of isomers) [Compound A27, (E/Z)-2-(5-((4-(2,6-dimethoxy-4-(2-methyl-1-oxo-1,2-dihydro-2,7-naphthyridin-4-yl)benzyl)piperazin-1-yl)methyl)-1-methyl-1,2,3,4-tetrahydroisoquinoline-2-carbonyl)-3-(3-methyloxetan-3-yl)acrylonitrile] |  | 
40 to 70% | 1.25 to 10 nM | 40 to 70% |  | COc1cc(-c2cn(C)c(=O)c3cnccc23)cc(OC)c1CN1CCC(Oc2cccc3c2CCN(C(=O)/C(C#N)=C/C(C)(C)C)C3C)CC1 (mixture of isomers) [Compound A28, (E/Z)-2-(5-((1-(2,6-dimethoxy-4-(2-methyl-1-oxo-1,2-dihydro-2,7-naphthyridin-4-yl)benzyl)piperidin-4-yl)oxy)-1-methyl-1,2,3,4-tetrahydroisoquinoline-2-carbonyl)-4,4-dimethylpent-2-enenitrile] |  | 
70 to 75% | 1.25 to 10 nM | 40 to 70% | 1.25 to 10 nM | COc1cc(-c2cn(C)c(=O)c3cnccc23)cc(OC)c1CN1CCCN(Cc2cccc3c2CCN(C(=O)/C(C#N)=C/C(C)(C)C)C3C)CC1 (mixture of isomers) [Compound A31, (E/Z)-2-(5-((4-(2,6-dimethoxy-4-(2-methyl-1-oxo-1,2-dihydro-2,7-naphthyridin-4-yl)benzyl)-1,4-diazepan-1-yl)methyl)-1-methyl-1,2,3,4-tetrahydroisoquinoline-2-carbonyl)-4,4-dimethylpent-2-enenitrile] |  | 
40 to 70% | 10 to 25 nM | 40 to 70% | < 1.25 nM | COc1cc(-c2cn(C)c(=O)c3cnccc23)cc(OC)c1CN(C)CCN(C)Cc1cccc2c1CCN(C(=O)/C(C#N)=C/C(C)(C)C)C2C (mixture of isomers) [Compound A32, (E/Z)-2-(5-(((2-((2,6-dimethoxy-4-(2-methyl-1-oxo-1,2-dihydro-2,7-naphthyridin-4-yl)benzyl)(methyl)amino)ethyl)(methyl)amino)methyl)-1-methyl-1,2,3,4-tetrahydroisoquinoline-2-carbonyl)-4,4-dimethylpent-2-enenitrile] |  | 
40 to 70% | 10 to 25 nM | 40 to 70% | < 1.25 nM | COc1cc(-c2cn(C)c(=O)c3cnccc23)cc(OC)c1CN1CCN(Cc2cccc3c2CCN(C(=O)/C(C#N)=C/c2ncccc2F)C3C)CC1 (mixture of isomers) [Compound A42, (E/Z)-2-[5-[[4-[[2,6-dimethoxy-4-(2-methyl-1-oxo-2,7-naphthyridin-4-yl)phenyl]methyl]piperazin-1-yl]methyl]-1-methyl-3,4-dihydro-1H-isoquinoline-2-carbonyl]-3-(3-fluoro-2-pyridyl)prop-2-enenitrile] |  | 
70 to 75% | 1.25 to 10 nM | 40 to 70% | < 1.25 nM | COc1cc(-c2cn(C)c(=O)c(C)c2C)cc(OC)c1CN1CCN(Cc2cccc3c2CCN(C(=O)/C(C#N)=C/C(C)C)C3C)CC1 (mixture of isomers) [Compound A43] |  | 
40 to 70% | 1.25 to 10 nM | 40 to 70% | < 1.25 nM | COc1cc(-c2cn(C)c(=O)c(C)c2C)cc(OC)c1CN1CCN(Cc2cccc3c2CCN(C(=O)/C(C#N)=C/C2(C)COC2)C3C)CC1 (mixture of isomers) [Compound A51, (E/Z)-2-[5-[[4-[[2,6-dimethoxy-4-(1,4,5-trimethyl-6-oxo-3-pyridyl)phenyl]methyl]piperazin-1-yl]methyl]-1-methyl-3,4-dihydro-1H-isoquinoline-2-carbonyl]-3-(3-methyloxetan-3-yl)prop-2-enenitrile] |  | 
40 to 70% | 1.25 to 10 nM | 40 to 70% |  | COc1cc(-c2cn(C)c(=O)c(C)c2C)cc(OC)c1CN1CCN(Cc2cccc3c2CCN(C(=O)/C(C#N)=C/c2cccc(C(F)(F)F)n2)C3C)CC1 (mixture of isomers) [Compound A53, (E/Z)-2-(5-((4-(2,6-dimethoxy-4-(1,4,5-trimethyl-6-oxo-1,6-dihydropyridin-3-yl)benzyl)piperazin-1-yl)methyl)-1-methyl-1,2,3,4-tetrahydroisoquinoline-2-carbonyl)-3-(6-(trifluoromethyl)pyridin-2-yl)acrylonitrile] |  | 
40 to 70% | < 1.25 nM | > 75% | < 1.25 nM | COc1cc(-c2cn(C)c(=O)c3cnccc23)cc(OC)c1CN(C)Cc1ccc2c(c1)CCN(C(=O)/C(C#N)=C/c1cccc(Br)n1)C2C (mixture of isomers) [Compound A66] |  | 
40 to 70% | 1.25 to 10 nM | 40 to 70% |  | COc1cccc(/C=C(\C#N)C(=O)N2CCc3c(CN4CCN(Cc5c(OC)cc(-c6cn(C)c(=O)c(C)c6C)cc5OC)CC4)cccc3C2C)n1 (mixture of isomers) [Compound A67, (E/Z)-2-(5-((4-(2,6-dimethoxy-4-(1,4,5-trimethyl-6-oxo-1,6-dihydropyridin-3-yl)benzyl)piperazin-1-yl)methyl)-1-methyl-1,2,3,4-tetrahydroisoquinoline-2-carbonyl)-3-(6-methoxypyridin-2-yl)acrylonitrile] |  | 
40 to 70% | 10 to 25 nM | 70 to 75% | < 1.25 nM | COc1cc(-c2cn(C)c(=O)c(C)c2C)cc(OC)c1CN1CC2CC1CN2Cc1cccc2c1CCN(C(=O)/C(C#N)=C/C(C)(C)C)C2C (mixture of isomers) [Compound A70, (E/Z)-2-(5-((5-(2,6-dimethoxy-4-(1,4,5-trimethyl-6-oxo-1,6-dihydropyridin-3-yl)benzyl)-2,5-diazabicyclo[2.2.1]heptan-2-yl)methyl)-1-methyl-1,2,3,4-tetrahydroisoquinoline-2-carbonyl)-4,4-dimethylpent-2-enenitrile] |  | 
40 to 70% | 25 to 300 nM | 40 to 70% | 1.25 to 10 nM | COc1cc(-c2cn(C)c(=O)c3cc(C(=O)NCCOc4ccc5c(c4)CCN(C(=O)/C(C#N)=C/c4nccs4)C5C)sc23)cc(OC)c1CN(C)C (mixture of isomers) [Compound A74] |  | 
40 to 70% | 25 to 300 nM | > 75% | 1.25 to 10 nM | COc1cc(-c2cn(C)c(=O)c3cc(C(=O)NCCCCCOc4ccc5c(c4)CCN(C(=O)/C(C#N)=C/c4nccs4)C5C)sc23)cc(OC)c1CN(C)C (mixture of isomers) [Compound A75, (E/Z)—N-(5-((2-(2-cyano-3-(thiazol-2-yl)acryloyl)-1-methyl-1,2,3,4-tetrahydroisoquinolin-6-yl)oxy)pentyl)-7-(4-((dimethylamino)methyl)-3,5-dimethoxyphenyl)-5-methyl-4-oxo-4,5-dihydrothieno[3,2-c]pyridine-2-carboxamide] |  | 

Compound | Dmax at 1 µM [1, 3] | DC50 [1, 4] | Dmax ([2]; MV4-11, 24 h) | DC50 [2] | DC50 ([1]; read-out: Assay 1 DC50; Table 2; BRD9 degradation, Assay Protocol 1; 6 h of treatment) | Dmax ([2]; 24 h)
COc1cc(-c2cn(C)c(=O)c3cnccc23)cc(OC)c1CN1CC2CC(C1)N2Cc1cccc2c1CCN(C(=O)/C(C#N)=C/C(C)(C)C)C2C (mixture of isomers) [Compound A41, (E/Z)-2-(5-((3-(2,6-dimethoxy-4-(2-methyl-1-oxo-1,2-dihydro-2,7-naphthyridin-4-yl)benzyl)-3,6-diazabicyclo[3.1.1]heptan-6-yl)methyl)-1-methyl-1,2,3,4-tetrahydroisoquinoline-2-carbonyl)-4,4-dimethylpent-2-enenitrile] | 70 to 75% |  |  | 1.25 to 10 nM | 1.25 to 10 nM | 70 to 75%
COc1cc(-c2cn(C)c(=O)c3cnccc23)cc(OC)c1CN1CC2CCC(C1)N2Cc1cccc2c1CCN(C(=O)/C(C#N)=C/C(C)(C)C)C2C (mixture of isomers) [Compound A48, (E/Z)-2-(5-((3-(2,6-dimethoxy-4-(2-methyl-1-oxo-1,2-dihydro-2,7-naphthyridin-4-yl)benzyl)-3,8-diazabicyclo[3.2.1]octan-8-yl)methyl)-1-methyl-1,2,3,4-tetrahydroisoquinoline-2-carbonyl)-4,4-dimethylpent-2-enenitrile] | > 75% | 1.25 to 10 nM | 40 to 70% | < 1.25 nM |  | 
